Experiments:
Type in all cases: in vivo
Settings in all cases: 250 g/ha, evaluated after 13 days
[1] = system: Echinochloa crus-galli (ECHCG); assay: Post-emergence Test, glasshouse, ECHCG
Summary of the method: (§1)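 Pots were sprayed 1 day after sowing (pre-emergence) or after 8 days' growth (post-emergence) at 250 g/ha, formulated in acetone/water 50:50 with 0.5% Tween 20. Glasshouse conditions were 24/16 °C, 14 h light, 65% humidity. Damage was scored after 13 days on a 1–5 scale (5 = 81–100%).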

IPOHE [2] = assay: Pre-emergence Test, glasshouse, IPOHE
Summary of the method: as §1

Setaria faberi (SETFA) [3] = assay: Post-emergence Test, glasshouse, SETFA
Summary of the method: as §1

ABUTH [4] = assay: Post-emergence Test, glasshouse, ABUTH
Summary of the method: as §1

[5] = system: Amaranthus retoflexus (AMARE); assay: Post-emergence Test, glasshouse, AMARE
Summary of the method: as §1

Setaria faberi (SETFA) [6] = assay: Pre-emergence Test, glasshouse, SETFA
Summary of the method: as §1

ABUTH [7] = assay: Pre-emergence Test, glasshouse, ABUTH
Summary of the method: as §1

[8] = system: Amaranthus retoflexus (AMARE); assay: Pre-emergence Test, glasshouse, AMARE
Summary of the method: as §1

[9] = system: Echinochloa crus-galli (ECHCG); assay: Pre-emergence Test, glasshouse, ECHCG
Summary of the method: as §1

IPOHE [10] = assay: Post-emergence Test, glasshouse, IPOHE
Summary of the method: as §1

SMILES	percentage damage caused to the plant, five-point scale, ECHCG [1]	percentage damage caused to the plant, five-point scale, IPOHE (IPOHE [2])	percentage damage caused to the plant, five-point scale, SETFA (Setaria faberi (SETFA) [3])	percentage damage caused to the plant, five-point scale, ABUTH (ABUTH [4])	percentage damage caused to the plant, five-point scale, AMARE [5]	percentage damage caused to the plant, five-point scale, SETFA (Setaria faberi (SETFA) [6])	percentage damage caused to the plant, five-point scale, ABUTH (ABUTH [7])	percentage damage caused to the plant, five-point scale, AMARE [8]	percentage damage caused to the plant, five-point scale, ECHCG [9]	percentage damage caused to the plant, five-point scale, IPOHE (IPOHE [10])
C#CCn1nc(Cl)c2cccc(Oc3ncc(Cl)cn3)c21 [Compound 1.059]	1 (1=0-20%)	1 (1=0-20%)	1 (1=0-20%)	2 (2=21-40%)	4 (4=61-80%)	2 (2=21-40%)	2 (2=21-40%)	2 (2=21-40%)	2 (2=21-40%)	1 (1=0-20%)
COCCCn1nc(Cl)c2cccc(Oc3ncc(Cl)cn3)c21 [Compound 1.060]	4 (4=61-80%)	2 (2=21-40%)	3 (3=41-60%)	3 (3=41-60%)	3 (3=41-60%)	4 (4=61-80%)	4 (4=61-80%)	4 (4=61-80%)	4 (4=61-80%)	2 (2=21-40%)
CCCn1nc(Cl)c2cccc(Oc3ncc(Cl)cn3)c21 [Compound 1.061]	2 (2=21-40%)	1 (1=0-20%)	2 (2=21-40%)	2 (2=21-40%)	4 (4=61-80%)	5 (5=81-100%)	1 (1=0-20%)	3 (3=41-60%)	4 (4=61-80%)	2 (2=21-40%)
FCCn1nc(Cl)c2cccc(Oc3ncc(Cl)cn3)c21 [Compound 1.062]	1 (1=0-20%)	1 (1=0-20%)	1 (1=0-20%)	2 (2=21-40%)	3 (3=41-60%)	4 (4=61-80%)	1 (1=0-20%)	4 (4=61-80%)	2 (2=21-40%)	1 (1=0-20%)
FC(F)Cn1nc(Cl)c2cccc(Oc3ncc(Cl)cn3)c21 [Compound 1.063]	2 (2=21-40%)	1 (1=0-20%)	2 (2=21-40%)	3 (3=41-60%)	4 (4=61-80%)	2 (2=21-40%)	2 (2=21-40%)	3 (3=41-60%)	2 (2=21-40%)	2 (2=21-40%)
C=C(C)Cn1nc(Cl)c2cccc(Oc3ncc(Cl)cn3)c21 [Compound 1.064]	1 (1=0-20%)	1 (1=0-20%)	1 (1=0-20%)	2 (2=21-40%)	2 (2=21-40%)	1 (1=0-20%)	1 (1=0-20%)	1 (1=0-20%)	1 (1=0-20%)	1 (1=0-20%)
C=CCn1nc(Cl)c2cccc(Oc3ncc(Cl)cn3)c21 [Compound 1.065]	2 (2=21-40%)	1 (1=0-20%)	2 (2=21-40%)	2 (2=21-40%)	4 (4=61-80%)	4 (4=61-80%)	2 (2=21-40%)	2 (2=21-40%)	3 (3=41-60%)	2 (2=21-40%)
CC(C)=CCCn1nc(Cl)c2cccc(Oc3ncc(Cl)cn3)c21 [Compound 1.066]	3 (3=41-60%)	1 (1=0-20%)	3 (3=41-60%)	4 (4=61-80%)	4 (4=61-80%)	5 (5=81-100%)	2 (2=21-40%)	3 (3=41-60%)	4 (4=61-80%)	2 (2=21-40%)
CC(C)=CCn1nc(Cl)c2cccc(Oc3ncc(Cl)cn3)c21 [Compound 1.067]	3 (3=41-60%)	1 (1=0-20%)	3 (3=41-60%)	3 (3=41-60%)	4 (4=61-80%)	4 (4=61-80%)	2 (2=21-40%)	3 (3=41-60%)	3 (3=41-60%)	2 (2=21-40%)
FC(F)(F)CCCCn1nc(Cl)c2cccc(Oc3ncc(Cl)cn3)c21 [Compound 1.068]	3 (3=41-60%)	2 (2=21-40%)	3 (3=41-60%)	4 (4=61-80%)	5 (5=81-100%)	5 (5=81-100%)	2 (2=21-40%)	5 (5=81-100%)	4 (4=61-80%)	2 (2=21-40%)
Cl/C=C/Cn1nc(Cl)c2cccc(Oc3ncc(Cl)cn3)c21 [Compound 1.069]	3 (3=41-60%)	1 (1=0-20%)	2 (2=21-40%)	4 (4=61-80%)	5 (5=81-100%)	5 (5=81-100%)	2 (2=21-40%)	3 (3=41-60%)	3 (3=41-60%)	2 (2=21-40%)
Cc1cnc(Oc2cccc3c(C(F)(F)F)nn(CCCC(F)(F)F)c23)nc1 [Compound 1.070]	4 (4=61-80%)	1 (1=0-20%)	3 (3=41-60%)	5 (5=81-100%)	3 (3=41-60%)	4 (4=61-80%)	3 (3=41-60%)	5 (5=81-100%)	4 (4=61-80%)	3 (3=41-60%)
Fc1cnc(Oc2cccc3c(C(F)(F)F)nn(CCCC(F)(F)F)c23)nc1 [Compound 1.071]	4 (4=61-80%)	2 (2=21-40%)	4 (4=61-80%)	5 (5=81-100%)	5 (5=81-100%)	5 (5=81-100%)	3 (3=41-60%)	5 (5=81-100%)	5 (5=81-100%)	4 (4=61-80%)
FC(F)(F)CCCn1nnc2c(Cl)ccc(Oc3ncc(Cl)cn3)c21 [Compound 1.072]	3 (3=41-60%)	1 (1=0-20%)	3 (3=41-60%)	1 (1=0-20%)	4 (4=61-80%)	4 (4=61-80%)	1 (1=0-20%)	4 (4=61-80%)	2 (2=21-40%)	3 (3=41-60%)

Source: patent US20230002357A1, “7-PYRIMIDINE-2-YL-OXY-INDAZOLE DERIVATIVES AND THEIR USE AS HERBICIDES” (SYNGENTA CROP PROTECTION AG, priority 2019, published 2023)
